The source of these data is patent US20050119301A1, “Treatment of restenosis” (priority 2001, published 2005).

“Also recorded” adds a separate entry of the source.

One assay relates to C57/B16 mice. In words: Mouse model of neointimal hyperplasia after mechanical endothelial damage. It counts as in vivo. Conditions: for effect on neointimal proliferation (in words) / neointimal proliferation, intimal thickness: 4 weeks after surgery; for neointimal proliferation, intimal thickness: in chow, surgery only 50±5%, no surgery 5±1%. The text has this: The key feature of atherosclerosis in humans is vascular smooth muscle cell (VSMC) migration from the arterial media to the intima, followed by proliferation within the intima. The animal model of atherosclerosis used in this experiment aimed to induce VSMC migration and neointimal proliferation by mechanical damage to the endothelium. A probe was introduced into the femoral artery of the mouse and was passed through the iliac artery to the bifurcation of the aorta. The probe was then withdrawn and the femoral artery ligated to prevent haemorrhage. Colateral circulation prevents any limb-associated ischaemia. Neointimal proliferation occurred in the iliac artery over the following 4 weeks.
Proliferation was enhanced by feeding the mouse cholesterol during this time (commencing one week before surgery). At four weeks, the mice were sacrificed and the iliac vessels on both sides are harvested (the non-operated vessel was used as a control). Neointimal proliferation is expressed as the ratio of the intimal area to the intimal plus media area.
Atherosclerosis was induced in the femoral artery of each mouse by mechanically removing the endothelium using a probe. The ability of isoflavone compounds to inhibit the atherosclerotic response was assessed by comparing treatment and placebo groups. C57/B16 mice (8-10 week old male) were anaesthetized, and the right femoral artery was de-endothilialized using a dissection microscope. These mice were also fed with a 2% cholesterol diet to enhance the progression of the disease. The mice were sacrificed at week 4. Their treated (right) and control (left) arteries were both collected and fixed in formalin for histopathological evaluation.
The mice were fed a diet of 2% cholesterol mixed with normal mouse chow for a week prior to surgery. The treatment groups were fed the chow with Cpd. 5 or Cpd. 12 or Cpds. 5+12. Mice were anaesthetised with Avertin, and angioplasty of the femoral artery was performed. After surgery, the mice were moved onto a warm mat in a quiet, darkened area and their recovery closely monitored. They were housed in sterile cages with sterile bedding to avoid infection. The mice continued a diet of cholesterol mixed with normal mouse chow for the next 4 weeks. The mice were euthanased at 4 weeks postsurgery. Their femoral arteries were collected for pathological examination. Sections were evaluated by image analysis to determine the area of the various sections of the arterial wall, and the numbers of cells in each area. The primary parameter being evaluated was the increase in the intimal area, expressed as the ratio of the area of the intima versus the area of the intima plus media. The interval sections (every 50 μm, or every ten sections) were mounted and stained with H & E. The cross-sectional areas of the endothelium, intima and media were evaluated, using image analysis.

Assay [1] concerns IMA-derived human VSMC primed with PDGF BB. Nature of the assay: PDGF BB-induced VSMC DNA synthesis, proliferation and cell number. The format is cell-based. Conditions: for proliferation of IMA cells primed with PDGF BB (in words): Cpd. 7 at concentrations as low as 0.1 nM; for effect of ER antagonist ICI 182780 on the inhibitory effect: ICI 182780 100 nmol/L. As for the experimental part: Cell proliferation was induced by a variety of growth factors such as serum and platelet derived growth factor (PDGF).
Media was changed to LG serum-free DMEM and cells were treated with [^3H]-thymidine at 1 μCi/well for 3 hours. Cells were washed twice with ice cold Dulbecco's PBS. Next, ice cold 0.2M HClO4 (1 ml/well) was added and cells were incubated on ice for 30 min. Cells were then washed three times with 0.5 ml/well of ice cold 0.2M HClO4. Media (0.5 ml/well of 0.2 M NaOH) was replaced and cells were incubate at 37° C. After 1 hour, cells were treated with acetic acid (6%, 0.2 ml/well), transferred to scintillation vials with 3 ml scintillation liquid (Instagel) and counted for 2 min per vial.
The effect of Cpd. 5 and Cpd. 7 was tested further in IMA-derived human VSMC primed with PDGF BB instead of serum. […] (FIG. 12). This effect was equivalent to that observed with estradiol. Cpd.
In further experiments Cpd. […] 7 at 100 nmol/L), indicating ER-mediation. […] 7 (1-100 nmol/L).

The test system of another assay is LDL. Nature of the assay: LDL antioxidation test (CuCl2-initiated LDL oxidation, lag time). Particulars: 10 mM; Promensil 5 mg/ml. The format is biochemical, human. As for the experimental part:
The LDL antioxidation test measures the ability of a compound to directly scavenge free radicals or to chelate transition metals. Thus in this series of experiments, the isoflavones and their derivatives were tested for their ability to act as free radical scavengers.
Fresh whole blood was obtained by venipuncture from healthy human volunteers under 25 years of age and supplemented immediately with EDTA (91 mg/ml) and BHT (4.4 mg/ml). LDL was prepared by step-wise ultracentrifugation within a density gradient of 1.02-1.05 g/cm^3. EDTA and BHT were present throughout all the steps of the isolation. The EDTA/BHT containing stock solution (15-30 mg LDL/ml) was stored in the dark in a nitrogen atmosphere until use, but never longer than two weeks.
Before oxidation experiments, the LDL stock solution was dialyzed in the 100-fold volume of 0.01 M phosphate buffer pH 7.4, 0.16 M NaCl, 0.1 mg/ml chloroamphenicol, which was made oxygen-free by vacuum degassing following by purging with nitrogen. The buffer was changed four times. This EDTA- and BHT-free LDL stock solution was used for all oxidation studies. The stock solution was stored not longer than 24 hr at 4° C. For performing the oxidation experiments, the EDTA- and BHT-free LDL stock solution was diluted with oxygen-saturated 0.01 M phosphate buffer pH 7.4, 0.16 M NaCl and the oxidation was initiated by the addition of a freshly prepared aqueous CuCl2 solution. The final conditions were in all experiments: room temperature, 0.25 mg LDL/ml and […] (see Esterbauer et. al., 1989)
The antioxidant activities of the following compounds were tested: daidzein ([…]), genistein ([…]), glycitein ([…]), biochanin ([…]), formononetin ([…]), Promensil™ (Novogen) (2.5 mg/ml, 5 mg/ml), Cpd. 5 (10 mM), Cpd. 7 (10 mM), Cpd. 8 (10 mM), Cpd. 12 (10 mM), Cpd. 4 (10 mM) and Cpd. 6 (10 mM). In each experiment, controls were used to compare the relative effectiveness of the Novogen isoflavone derivatives to common and well-known antioxidants such as ascorbate (2.5 mM; Vitamin C).

Another assay concerns E-selectin. Nature of the assay: Inhibition of E-selectin expression in activated HUVEC. It counts as cell-based, human. Conditions: pre-incubated 2 or 18 hours prior to TNF stimulation; Cpd. 8 especially at 10 μg/ml, Cpd. 12 especially at 1 and 10 μg/ml. As for the experimental part: The ability of isoflavone compounds and derivatives to inhibit the expression of E-selectin was measured by the protocol set out in Litwin et al. (1997) and is incorporated herein by reference.
FIG. 18 provides comparative data on the ability of a number of isoflavone compounds to inhibit the expression of E-selectin conducted in accordance with the method of Litwin et al. The interaction of isoflavone metabolite Cpds. 8 and 12 on human umbilical vein endothelial cells, activated by […], was measured against the concentration of the compound. The cells were pre-incubated for either 2 or 18 hours prior to TNF stimulation. In comparison with a DMSO control, isoflavone Cpd. […] Isoflavone Cpd.

Regarding `O=C1c2ccc(O)cc2OCC1c1ccc(O)cc1` (stereo not drawn) [Cpd. 5], the “reduction of neointimal area” value in the assay on C57/B16 mice (4 weeks) is reported as “approximately 50%”. In the assay with C57/B16 mice, the “effect on neointimal proliferation (in words)” value is on record as “significantly reduced” and the “neointimal proliferation, intimal thickness” value was determined as 30±6%. In assay [1], the “proliferation of IMA cells primed with PDGF BB (in words)” value was “no observed effect on cellular proliferation”.

`Oc1ccc(C2COc3cc(O)ccc3C2O)cc1` (stereo not drawn) [Cpd. 7]: in assay [1] (1-100 nmol/L), the “PDGF BB-induced increases in cell number” value is listed as “partly but significantly reduced”. For the same molecule, the “proliferation of IMA cells primed with PDGF BB (in words)” value in assay [1] is recorded as “inhibited proliferation”. Further, the inhibition at 0.001 µM in assay [1] (Homo sapiens, VSMC, 3 h, 1 nmol/L, read-out: inhibition of PDGF BB-induced DNA synthesis ([3H]-thymidine incorporation)) was 10%. Also, the inhibition at 0.01 µM in assay [1] (Homo sapiens, VSMC, 3 h, 10 nmol/L, read-out: inhibition of PDGF BB-induced DNA synthesis ([3H]-thymidine incorporation)) stood at 17%. In assay [1] (Homo sapiens, VSMC, 3 h, 100 nmol/L, read-out: inhibition of PDGF BB-induced DNA synthesis ([3H]-thymidine incorporation)), the inhibition at 0.1 µM came to 17%. In addition, the “effect of ER antagonist ICI 182780 on the inhibitory effect” value in assay [1] (compound at 100 nmol/L) is given as “partly abolished”; in assay [1] (compound at 1-10 nmol/L), “completely abolished”. Further, the “ability to scavenge free radicals (in words)” value in the assay with LDL was “significantly less active than Cpd. 8 and Cpd. 12 but still almost as active as ascorbate”.

For the molecule `Oc1ccc(C2COc3cc(O)ccc3C2O)cc1` (stereo not drawn) [Cpd. 8], in the assay with E-selectin, the “inhibition of E-selectin expression (in words)” value is reported as “very good inhibition of E-selectin expression”. In addition, the “ability to scavenge free radicals (in words)” value with LDL is listed as “very active scavengers”.

In the case of `Oc1ccc(C2=Cc3ccc(O)cc3OC2)cc1` [Cpd. 12], in the assay with C57/B16 mice, the “effect on neointimal proliferation (in words)” value is “no detectable effect; also recorded: no appreciable effect on neointimal proliferation” and the “neointimal proliferation, intimal thickness” value amounted to 50±29%. In addition, the “inhibition of E-selectin expression (in words)” value in the assay with E-selectin is “excellent inhibition of E-selectin expression”. In the assay on LDL, the “ability to scavenge free radicals (in words)” value is reported as “very active scavengers”.
